Laboratory results as given in publication PMC4389225, “Triaminopyrimidine is a fast-killing and long-acting antimalarial clinical candidate” (Nature Communications, 2015).
pIC50, pKi: −log10 of the molar value. Read-outs that look alike come from different tables or passages of the source.

How the values were obtained:
[1] = tested on: Ion channel; experiment: Secondary pharmacology panel, target #21
Experimental: (§3) An in vitro pharmacological profiling panel was specifically designed for the detection of potential high- risk clinical adverse drug reactions. […] For enzyme and kinase assays, the results were expressed as a percent inhibition of control-specific activity obtained in the presence of the test compound. The IC50 values (concentration causing a half-maximal inhibition of control-specific activity) and Hill coefficients (nH) were determined by nonlinear regression analysis of the inhibition/concentration–response curves using Hill equation curve fitting as described earlier[37].
(§4) For assessment of activity against these targets, compounds were tested in an 8-point
(§5) concentration response covering half-log units up to a top test concentration of 100 µM, and
(§6) an IC50 or Ki determined using either radio ligand binding assays or enzyme activity assays.

[2] = Plasma protein binding, human; settings: for fraction unbound: human, plasma
[3] = tested on: Enzyme; experiment: Secondary pharmacology panel, target #11
Experimental: (§7) For enzyme and kinase assays, the results were expressed as a percent inhibition of control-specific activity obtained in the presence of the test compound. The IC50 values (concentration causing a half-maximal inhibition of control-specific activity) and Hill coefficients (nH) were determined by nonlinear regression analysis of the inhibition/concentration–response curves using Hill equation curve fitting as described earlier[37].
as §4, §5, §6

[4] = tested on: Ion channel; experiment: Secondary pharmacology panel, target #16
Experimental: as §3, §4, §5, §6

[5] = tested on: GPCR; experiment: Secondary pharmacology panel, target #22
Experimental: as §3, §4, §5, §6

[6] = biological target: T1, acetylcholine esterase (AChE) (Homo sapiens, UniProt P22303); experiment: AChE enzyme activity assay (CEREP); format: biochemical
T1 construct: purchased CEREP, France (external assay service) 0363
Experimental: (§1) An in vitro pharmacological profiling panel was specifically designed for the detection of potential high- risk clinical adverse drug reactions. The panel comprised of 26 diverse targets (6 enzymes, 2 transporters, 9 G-protein-coupled receptors (GPCRs), 5 ion channels along with hERG, M2, alpha1A and AchE) and was conduced externally by CEREP, France […]. […] Detailed methodology for in vitro pharmacological profiling assays provided by CEREP can be found at http://www.cerep.fr, with specific reference to the AChE (cat. no. 0363), Muscarinic M1 receptor (cat. no. 0091) and Adrenergic α1A receptor (cat. no. 2338) assays. For enzyme and kinase assays, the results were expressed as a percent inhibition of control-specific activity obtained in the presence of the test compound. The IC50 values (concentration causing a half-maximal inhibition of control-specific activity) and Hill coefficients (nH) were determined by nonlinear regression analysis of the inhibition/concentration–response curves using Hill equation curve fitting as described earlier.

[7] = tested on: Transporter; experiment: Secondary pharmacology panel, target #14
Experimental: as §3, §4, §5, §6

[8] = tested on: GPCR 9; experiment: Secondary pharmacology panel, target #20
Experimental: as §7
targets (8 enzymes, 5 ion channels, 10 GPCRs and 2 transporters) and hERG.
as §4, §5, §6

[9] = tested on: Enzyme; experiment: Secondary pharmacology panel, target #25
Experimental: as §7, §4, §5, §6

[10] = biological target: T2, Muscarinic M2 receptor (Homo sapiens, UniProt P08172); experiment: Muscarinic M2 receptor radioligand binding (CEREP)
T2 construct: purchased CEREP, France (external assay service)
T2 sequence (P08172 1-466): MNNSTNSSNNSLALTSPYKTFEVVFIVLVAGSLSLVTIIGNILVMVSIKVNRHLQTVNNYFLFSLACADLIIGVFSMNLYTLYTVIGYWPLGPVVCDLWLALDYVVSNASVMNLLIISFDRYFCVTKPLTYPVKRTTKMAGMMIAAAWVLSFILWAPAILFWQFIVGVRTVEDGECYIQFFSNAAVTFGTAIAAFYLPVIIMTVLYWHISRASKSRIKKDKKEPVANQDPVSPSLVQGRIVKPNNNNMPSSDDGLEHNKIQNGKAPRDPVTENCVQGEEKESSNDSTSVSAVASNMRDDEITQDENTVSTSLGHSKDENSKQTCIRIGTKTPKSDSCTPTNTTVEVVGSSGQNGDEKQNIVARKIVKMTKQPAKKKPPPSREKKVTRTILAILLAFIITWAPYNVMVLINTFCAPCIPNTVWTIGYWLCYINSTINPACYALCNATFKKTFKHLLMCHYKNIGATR
Experimental: as §1
(§2) For radioligand binding assays, the results are expressed as % inhibition of control-specific binding obtained in the presence of the test compounds. The IC50 values (concentration causing a half-maximal inhibition of control-specific binding) and Hill coefficients (nH) were determined by nonlinear regression analysis of the competition curves generated with mean replicate values using Hill equation curve fitting. The inhibition constants (Ki) were subsequently calculated by applying the Cheng Prusoff equation[38].

[11] = tested on: Ion channel; experiment: Secondary pharmacology panel, target #2
Experimental: as §3, §4, §5, §6

[12] = biological target: T3, α1A adrenoceptor (Homo sapiens, UniProt P35348); experiment: α1A adrenoceptor radioligand binding (CEREP)
T3 construct: purchased CEREP, France (external assay service) 2338
T3 sequence (P35348 1-466): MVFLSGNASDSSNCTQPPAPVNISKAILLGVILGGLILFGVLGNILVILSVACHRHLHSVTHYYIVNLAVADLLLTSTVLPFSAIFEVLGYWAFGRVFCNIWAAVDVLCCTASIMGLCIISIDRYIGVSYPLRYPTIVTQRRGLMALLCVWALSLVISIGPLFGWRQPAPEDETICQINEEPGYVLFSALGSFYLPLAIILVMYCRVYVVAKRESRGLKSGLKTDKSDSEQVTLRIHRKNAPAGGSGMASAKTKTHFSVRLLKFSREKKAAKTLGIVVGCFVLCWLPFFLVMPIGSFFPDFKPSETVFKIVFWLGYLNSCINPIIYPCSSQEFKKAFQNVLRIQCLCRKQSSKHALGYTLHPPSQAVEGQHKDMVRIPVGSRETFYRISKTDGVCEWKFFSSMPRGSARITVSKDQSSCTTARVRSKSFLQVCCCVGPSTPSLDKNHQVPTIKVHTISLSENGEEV
Experimental: as §1, §2

[13] = tested on: Ion channel; experiment: Secondary pharmacology panel, target #17
Experimental: as §3, §4, §5, §6

[14] = tested on: Transporter; experiment: Secondary pharmacology panel, target #7
Experimental: as §3, §4, §5, §6

[15] = tested on: Enzyme; experiment: Secondary pharmacology panel, target #23
Experimental: as §7, §4, §5, §6

[16] = tested on: GPCR; experiment: Secondary pharmacology panel, target #12
Experimental: as §3, §4, §5, §6

[17] = tested on: Enzyme; experiment: Secondary pharmacology panel, target #19
Experimental: as §7, §4, §5, §6

[18] = tested on: GPCR; experiment: Secondary pharmacology panel, target #13
Experimental: as §3, §4, §5, §6

[19] = tested on: GPCR; experiment: Secondary pharmacology panel, target #6
Experimental: as §3, §4, §5, §6

[20] = tested on: Enzyme; experiment: Secondary pharmacology panel, target #24
Experimental: as §7, §4, §5, §6

[21] = tested on: GPCR; experiment: Secondary pharmacology panel, target #26
Experimental: as §3, §4, §5, §6

[22] = tested on: Enzyme; experiment: Secondary pharmacology panel, target #15
Experimental: as §7, §4, §5, §6

[23] = Binding Ki / Enzyme IC50, Target #3, AChE

T1 sequence (P22303 32-614): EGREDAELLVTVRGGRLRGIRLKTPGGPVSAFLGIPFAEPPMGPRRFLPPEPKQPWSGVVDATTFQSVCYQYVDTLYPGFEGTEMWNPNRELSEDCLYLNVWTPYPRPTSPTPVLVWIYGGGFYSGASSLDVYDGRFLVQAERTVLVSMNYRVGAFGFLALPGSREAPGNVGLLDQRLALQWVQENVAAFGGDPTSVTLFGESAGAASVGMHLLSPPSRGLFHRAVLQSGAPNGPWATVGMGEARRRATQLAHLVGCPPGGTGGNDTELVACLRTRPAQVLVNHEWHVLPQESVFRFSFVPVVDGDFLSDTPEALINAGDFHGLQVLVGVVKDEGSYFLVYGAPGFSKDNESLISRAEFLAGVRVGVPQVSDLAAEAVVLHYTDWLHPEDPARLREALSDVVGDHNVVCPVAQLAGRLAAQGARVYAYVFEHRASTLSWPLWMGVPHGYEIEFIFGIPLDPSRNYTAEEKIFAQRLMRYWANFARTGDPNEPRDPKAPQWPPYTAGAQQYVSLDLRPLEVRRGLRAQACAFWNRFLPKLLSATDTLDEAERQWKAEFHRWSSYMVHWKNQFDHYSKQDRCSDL

Compound	Binding Ki / Enzyme IC50 [1]	fraction unbound [2]	Binding Ki / Enzyme IC50 [3]	Binding Ki / Enzyme IC50 [4]	Binding Ki / Enzyme IC50 [5]	pIC50 [6, 23]	pIC50 ([6]; read-out: AChE IC50)	Binding Ki / Enzyme IC50 [7]	Binding Ki / Enzyme IC50 [8]	Binding Ki / Enzyme IC50 [9]	pIC50 [10]	pKi [10]	Binding Ki / Enzyme IC50 [11]	pIC50 [12]	pKi [12]	Binding Ki / Enzyme IC50 [13]	Binding Ki / Enzyme IC50 [14]	Binding Ki / Enzyme IC50 [15]	Binding Ki / Enzyme IC50 [16]	Binding Ki / Enzyme IC50 [17]	further results
Cc1nc(Nc2ncc(N3CCN(C)[C@H](C)C3)c(Nc3cc(C)n(C)n3)n2)cc(C2CC2)c1F [compound 12, (R)-N2-(4-cyclopropyl-5-fluoro-6-methylpyridin-2-yl)-N4-(1,5-dimethyl-1H-pyrazol-3-yl)-5-(3,4-dimethylpiperazin-1-yl)pyrimidine-2,4-diamine]	> 100 µM	0.025	4.29 µM	> 100 µM	> 100 µM	4.11	< 4.12	10.1 µM	> 100 µM	> 100 µM	5.70	5.98	2.62 µM	5.92	6.22	> 100 µM	3.85 µM	> 100 µM	10.9 µM	14.5 µM	Plasma protein binding (% free) ([2]; Human): 2.5 % free; Protein binding (human free) ([2]; Human): 2.5%; reduction in free fraction ([2]; compound 12 versus compound 2): 10 fold; selectivity against AChE ([6]; relative to Pf potency): > 1,000 fold; Binding Ki / Enzyme IC50 [18]: 11.5 µM; Binding Ki / Enzyme IC50 [19]: 7.82 µM; Binding Ki / Enzyme IC50 [20]: > 100 µM; Binding Ki / Enzyme IC50 [21]: > 100 µM; Binding Ki / Enzyme IC50 [22]: 11.6 µM
Cc1cc(Nc2ncc(N3CCN(C)CC3)c(N3CCCC3)n2)ccn1 [compound 2]	> 100 µM	0.402	> 100 µM	33.2 µM	> 100 µM	6.75	6.80	31.45 µM	> 100 µM	> 100 µM	5.80	5.96	0.933 µM	5.51	5.84	59 µM	17.1 µM	> 100 µM	30.45 µM	> 100 µM	Selectivity ratio for AChE (IC50 / blood Cmin at ED90 in the Pf/SCID model) [6]: < 1; Selectivity ratio for M2 (IC50 / blood Cmin at ED90 in the Pf/SCID model) [10]: < 1; Selectivity ratio for α1A (IC50 / blood Cmin at ED90 in the Pf/SCID model) [12]: < 1; Binding Ki / Enzyme IC50 [18]: 38.7 µM; Binding Ki / Enzyme IC50 [19]: 2.695 µM; Binding Ki / Enzyme IC50 [20]: > 100 µM; Binding Ki / Enzyme IC50 [21]: > 100 µM; Binding Ki / Enzyme IC50 [22]: 13 µM
